# Source: the supplement of paper PMC11619387
# ± gives the standard deviation of the averaged measurements.
# Key:
# [1] = test system: Pseudomonas aeruginosa PAO1-Xen41; experiment: EC50 of growth/kill rate concentration-effect curve
# Method: (§1)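 Time-kill assays of bioluminescent P. aeruginosa PAO1-Xen41 (start ~5e6 CFU/mL) in 96-well plates at 37 °C, 150 rpm. Luminescence was read hourly for 20 h in cation-adjusted Mueller-Hinton broth, either non-conditioned (MH broth with or without supplements) or conditioned by one of 13 CF-associated species, then filter-sterilised and nutrient-replenished. Growth/kill rates came from log-linear regression of the exponential phase at 9-10 antibiotic concentrations, and Hill (Emax) models were fitted with drc for each replicate.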
# [2] = test system: Pseudomonas aeruginosa PAO1-Xen41; experiment: Hill coefficient of concentration-effect curve (unitless); higher = steeper concentration-effect curve
# Method: as §1
# [3] = test system: Pseudomonas aeruginosa PAO1-Xen41; experiment: Emax, maximal drug effect on net growth rate (fitted lower asymptote) (per hour (slope of log luminescence)); higher = weaker maximal killing (less negative)
# Method: as §1
# [4] = medium (conditioned by secondary species or non-conditioned control): A. baumannii
# [5] = medium (conditioned by secondary species or non-conditioned control): A. fumigatus
# [6] = medium (conditioned by secondary species or non-conditioned control): A. xylosoxidans
# [7] = medium (conditioned by secondary species or non-conditioned control): B. cepacia
# [8] = medium (conditioned by secondary species or non-conditioned control): C. albicans
# [9] = medium (conditioned by secondary species or non-conditioned control): H. influenzae
# [10] = medium (conditioned by secondary species or non-conditioned control): M. abcessus
# [11] = medium (conditioned by secondary species or non-conditioned control): M. avium
# [12] = medium (conditioned by secondary species or non-conditioned control): M. catarrhalis
# [13] = medium (conditioned by secondary species or non-conditioned control): MH broth
# [14] = medium (conditioned by secondary species or non-conditioned control): MH broth + ADC
# [15] = medium (conditioned by secondary species or non-conditioned control): MH broth + LHB + NAD
# [16] = medium (conditioned by secondary species or non-conditioned control): MH broth + glucose
# [17] = medium (conditioned by secondary species or non-conditioned control): R. mannitolilytica
# [18] = medium (conditioned by secondary species or non-conditioned control): S. aureus
# [19] = medium (conditioned by secondary species or non-conditioned control): S. maltophilia
# [20] = medium (conditioned by secondary species or non-conditioned control): S. pneumoniae
smiles,measurement,setting,value
CN(C)c1ccc(O)c2c1C[C@H]1C[C@H]3[C@H](N(C)C)C(O)=C(C(N)=O)C(=O)[C@@]3(O)C(O)=C1C2=O [minocycline],EC50,[1]; [4],41.5 ± 2.6 µg/mL
same,EC50,[1]; [5],4.51 ± 1.3 µg/mL
same,EC50,[1]; [6],29.9 ± 15 µg/mL
same,EC50,[1]; [7],65.8 ± 34 µg/mL
same,EC50,[1]; [8],7.19 ± 3.2 µg/mL
same,EC50,[1]; [9],9.75 ± 0.44 µg/mL
same,EC50,[1]; [10],81 ± 10 µg/mL
same,EC50,[1]; [11],6.33 ± 2.2 µg/mL
same,EC50,[1]; [12],21.1 ± 7.2 µg/mL
same,EC50,[1]; [13],18.7 ± 5.8 µg/mL
same,EC50,[1]; [14],3.939 ± 0.011 µg/mL
same,EC50,[1]; [15],8.7 ± 3 µg/mL
same,EC50,[1]; [16],19.7 ± 5.8 µg/mL
same,EC50,[1]; [17],72.8 ± 23 µg/mL
same,EC50,[1]; [18],87.8 ± 18 µg/mL
same,EC50,[1]; [19],81 ± 24 µg/mL
same,EC50,[1]; [20],4.82 ± 0.48 µg/mL
same,Hill coefficient,[2]; [4],3.37 ± 0.23
same,Hill coefficient,[2]; [5],5.95 ± 4.4
same,Hill coefficient,[2]; [6],6.19 ± 3.1
same,Hill coefficient,[2]; [7],1.13 ± 0.18
same,Hill coefficient,[2]; [8],5.63 ± 7.1
same,Hill coefficient,[2]; [9],1.67 ± 0.093
same,Hill coefficient,[2]; [10],0.784 ± 0.0094
same,Hill coefficient,[2]; [11],5.77 ± 6.8
same,Hill coefficient,[2]; [12],3.92 ± 3.6
same,Hill coefficient,[2]; [13],1.16 ± 0.093
same,Hill coefficient,[2]; [14],15 ± 0.58
same,Hill coefficient,[2]; [15],1.74 ± 0.69
same,Hill coefficient,[2]; [16],1.2 ± 0.25
same,Hill coefficient,[2]; [17],0.909 ± 0.074
same,Hill coefficient,[2]; [18],0.785 ± 0.035
same,Hill coefficient,[2]; [19],0.781 ± 0.041
same,Hill coefficient,[2]; [20],2.06 ± 0.38
same,Emax,[3]; [4],-0.0946 ± 0.0024
same,Emax,[3]; [5],-0.12 ± 0.034
same,Emax,[3]; [6],-0.193 ± 0.029
same,Emax,[3]; [7],-0.464 ± 0.13
same,Emax,[3]; [8],-0.223 ± 0.072
same,Emax,[3]; [9],-0.198 ± 0.017
same,Emax,[3]; [10],-0.72 ± 0.062
same,Emax,[3]; [11],-0.13 ± 0.057
same,Emax,[3]; [12],-0.0725 ± 0.054
same,Emax,[3]; [13],-0.41 ± 0.051
same,Emax,[3]; [14],-0.071 ± 0.0075
same,Emax,[3]; [15],-0.184 ± 0.081
same,Emax,[3]; [16],-0.432 ± 0.079
same,Emax,[3]; [17],-0.649 ± 0.13
same,Emax,[3]; [18],-0.776 ± 0.079
same,Emax,[3]; [19],-0.713 ± 0.1
same,Emax,[3]; [20],-0.0595 ± 0.019
O=C(O)c1cn(C2CC2)c2cc(N3CCNCC3)c(F)cc2c1=O [ciprofloxacin],EC50,[1]; [4],0.0737 ± 0.0011 µg/mL
same,EC50,[1]; [5],0.08478 ± 0.00034 µg/mL
same,EC50,[1]; [6],0.0394 ± 0.0024 µg/mL
same,EC50,[1]; [8],0.08689 ± 0.00048 µg/mL
same,EC50,[1]; [9],0.0686 ± 0.0034 µg/mL
same,EC50,[1]; [10],0.046 ± 0.00081 µg/mL
same,EC50,[1]; [11],0.0646 ± 0.00099 µg/mL
same,EC50,[1]; [12],0.0542 ± 0.0035 µg/mL
same,EC50,[1]; [13],0.0844 ± 0.0016 µg/mL
same,EC50,[1]; [14],0.0577 ± 0.0069 µg/mL
same,EC50,[1]; [15],0.0388 ± 0.0012 µg/mL
same,EC50,[1]; [16],0.0437 ± 0.0016 µg/mL
same,EC50,[1]; [17],0.0451 ± 0.0017 µg/mL
same,EC50,[1]; [18],0.0434 ± 0.00044 µg/mL
same,EC50,[1]; [19],0.0279 ± 0.016 µg/mL
same,EC50,[1]; [20],0.0738 ± 0.0018 µg/mL
same,Hill coefficient,[2]; [4],4.99 ± 0.09
same,Hill coefficient,[2]; [5],6.73 ± 0.12
same,Hill coefficient,[2]; [6],5.96 ± 1.2
same,Hill coefficient,[2]; [7],3.61 ± 2.8
same,Hill coefficient,[2]; [8],6.2 ± 0.26
same,Hill coefficient,[2]; [9],4.89 ± 0.5
same,Hill coefficient,[2]; [10],4.82 ± 0.23
same,Hill coefficient,[2]; [11],3.72 ± 0.068
same,Hill coefficient,[2]; [12],1.71 ± 0.099
same,Hill coefficient,[2]; [13],6.8 ± 0.78
same,Hill coefficient,[2]; [14],3.02 ± 0.22
same,Hill coefficient,[2]; [15],4.99 ± 0.94
same,Hill coefficient,[2]; [16],5.64 ± 0.39
same,Hill coefficient,[2]; [17],4.94 ± 0.17
same,Hill coefficient,[2]; [18],5.13 ± 0.12
same,Hill coefficient,[2]; [19],3.59 ± 2.2
same,Hill coefficient,[2]; [20],4.27 ± 0.046
same,Emax,[3]; [4],-0.126 ± 0.011
same,Emax,[3]; [5],-0.125 ± 0.0077
same,Emax,[3]; [6],-0.0897 ± 0.0069
same,Emax,[3]; [7],-0.0915 ± 0.015
same,Emax,[3]; [8],-0.0975 ± 0.012
same,Emax,[3]; [9],-0.124 ± 0.0072
same,Emax,[3]; [10],-0.124 ± 0.015
same,Emax,[3]; [11],-0.0922 ± 0.014
same,Emax,[3]; [12],-0.0659 ± 0.013
same,Emax,[3]; [13],-0.125 ± 0.011
same,Emax,[3]; [14],-0.11 ± 0.02
same,Emax,[3]; [15],-0.106 ± 0.022
same,Emax,[3]; [16],-0.101 ± 0.011
same,Emax,[3]; [17],-0.0966 ± 0.0091
same,Emax,[3]; [18],-0.0957 ± 0.0083
same,Emax,[3]; [19],-0.0883 ± 0.022
same,Emax,[3]; [20],-0.117 ± 0.025
C[C@@H](O)[C@H]1C(=O)N2C(C(=O)O)=C(S[C@@H]3CN[C@H](C(=O)N(C)C)C3)[C@H](C)[C@H]12 [meropenem],EC50,[1]; [4],2.68 ± 0.29 µg/mL
same,EC50,[1]; [5],0.389 ± 0.0045 µg/mL
same,EC50,[1]; [6],1.25 ± 0.12 µg/mL
same,EC50,[1]; [7],0.916 ± 0.06 µg/mL
same,EC50,[1]; [8],0.784 ± 0.017 µg/mL
same,EC50,[1]; [9],0.6259 ± 0.0061 µg/mL
same,EC50,[1]; [10],0.609 ± 0.015 µg/mL
same,EC50,[1]; [11],0.337 ± 0.0068 µg/mL
same,EC50,[1]; [12],1.91 ± 0.18 µg/mL
same,EC50,[1]; [13],0.612 ± 0.014 µg/mL
same,EC50,[1]; [14],0.2684 ± 0.00094 µg/mL
same,EC50,[1]; [15],0.663 ± 0.027 µg/mL
same,EC50,[1]; [16],0.628 ± 0.0068 µg/mL
same,EC50,[1]; [17],0.6203 ± 0.0062 µg/mL
same,EC50,[1]; [18],0.7071 ± 0.0046 µg/mL
same,EC50,[1]; [19],1.18 ± 0.1 µg/mL
same,EC50,[1]; [20],0.938 ± 0.069 µg/mL
same,Hill coefficient,[2]; [4],6.64 ± 1.9
same,Hill coefficient,[2]; [5],7.42 ± 0.85
same,Hill coefficient,[2]; [6],4.28 ± 0.44
same,Hill coefficient,[2]; [7],12.1 ± 0.73
same,Hill coefficient,[2]; [8],3.15 ± 0.22
same,Hill coefficient,[2]; [9],2.15 ± 0.064
same,Hill coefficient,[2]; [10],5.75 ± 0.49
same,Hill coefficient,[2]; [11],7.81 ± 0.13
same,Hill coefficient,[2]; [12],6.15 ± 1.7
same,Hill coefficient,[2]; [13],4.27 ± 0.5
same,Hill coefficient,[2]; [14],15.3 ± 0.38
same,Hill coefficient,[2]; [15],3.73 ± 0.49
same,Hill coefficient,[2]; [16],3 ± 0.15
same,Hill coefficient,[2]; [17],8.16 ± 0.49
same,Hill coefficient,[2]; [18],10 ± 0.16
same,Hill coefficient,[2]; [19],3.29 ± 0.2
same,Hill coefficient,[2]; [20],4.34 ± 0.71
same,Emax,[3]; [4],-0.0771 ± 0.0085
same,Emax,[3]; [5],-0.093 ± 0.0021
same,Emax,[3]; [6],-0.0831 ± 0.0047
same,Emax,[3]; [7],-0.0593 ± 0.0063
same,Emax,[3]; [8],-0.12 ± 0.0059
same,Emax,[3]; [9],-0.172 ± 0.0075
same,Emax,[3]; [10],-0.0816 ± 0.0014
same,Emax,[3]; [11],-0.0509 ± 0.0049
same,Emax,[3]; [12],-0.0746 ± 0.016
same,Emax,[3]; [13],-0.0947 ± 0.0021
same,Emax,[3]; [14],-0.0675 ± 0.003
same,Emax,[3]; [15],-0.125 ± 0.0027
same,Emax,[3]; [16],-0.0923 ± 0.0018
same,Emax,[3]; [17],-0.0818 ± 0.0026
same,Emax,[3]; [18],-0.0714 ± 0.0052
same,Emax,[3]; [19],-0.0918 ± 0.013
same,Emax,[3]; [20],-0.189 ± 0.017
